One data set concerns Shigella sp. As to the kind of experiment: Antibiotic activity (MIC), Gradient Plate in vitro method, Shigella sp. It counts as cell-based. As to conditions: read-out: Minimum Inhibitory Concentration. The source says: (§1) The antibiotic activity of the cephalosporin compounds of the present invention is illustrated by the data presented in Table I for representative compounds. The values in the table are the minimum inhibitory concentrations (MIC) for the test compounds against the indicated microorganisms. The MIC values were obtained in the Gradient Plate in vitro method for determining antibiotic activity.

Another data set has as its system Escherichia coli. As to the kind of experiment: Antibiotic activity (MIC), Gradient Plate in vitro method, Escherichia coli. In kind it is cell-based. The note with it: read-out: Minimum Inhibitory Concentration. The source says:
(§2) The values in the table are the minimum inhibitory concentrations (MIC) for the test compounds against the indicated microorganisms. The MIC values were obtained in the Gradient Plate in vitro method for determining antibiotic activity.

The next data set deals with Klebsiella pneumoniae. The experiment in a line: Antibiotic activity (MIC), Gradient Plate in vitro method, Klebsiella pneumoniae. It counts as cell-based. The note with it: read-out: Minimum Inhibitory Concentration.
Source text: as §2

The subject of another data set is Aerobacter Aerogenes. As to the kind of experiment: Antibiotic activity (MIC), Gradient Plate in vitro method, Aerobacter Aerogenes. In kind it is cell-based. As to conditions: Klebsiella aerogenes, read-out: Minimum Inhibitory Concentration.
Source text: as §2

A further data set concerns Salmonella heidelberg. As to the kind of experiment: Antibiotic activity (MIC), Gradient Plate in vitro method, Salmonella heidelberg. As to conditions: Salmonella enterica, read-out: Minimum Inhibitory Concentration. It counts as cell-based.
Source text: as §2

Another data set relates to Pseudomonas Aeruginosa. As to the kind of experiment: Antibiotic activity (MIC), Gradient Plate in vitro method, Pseudomonas Aeruginosa. It counts as cell-based. As to conditions: read-out: Minimum Inhibitory Concentration.
Source text: as §2

For a further data set, the system named is Serratia marcescens. As to the kind of experiment: Antibiotic activity (MIC), Gradient Plate in vitro method, Serratia marcescens. In kind it is cell-based. As to conditions: read-out: Minimum Inhibitory Concentration.
Source text: as §1

In data set [1] the test system is V41 (penicillin resistant Staphylococcus). As to the kind of experiment: Antibiotic activity (MIC), Gradient Plate in vitro method, V41. The note with it: read-out: Minimum Inhibitory Concentration. It counts as cell-based.
Source text: as §1
(§3) ^1 Test organisms V41, V32, and V84 are penicillin resistant

In data set [2] the test system is V32 (penicillin resistant Staphylococcus). As to the kind of experiment: Antibiotic activity (MIC), Gradient Plate in vitro method, V32. In kind it is cell-based. As to conditions: read-out: Minimum Inhibitory Concentration.
Source text: as §1, §3

For data set [3], the system named is X466 (methicillin resistant Staphylococcus). As to the kind of experiment: Antibiotic activity (MIC), Gradient Plate in vitro method, X466. In kind it is cell-based. As to conditions: read-out: Minimum Inhibitory Concentration. The source says:
The antibiotic activity of the cephalosporin compounds of the present invention is illustrated by the data presented in Table I for representative compounds. The values in the table are the minimum inhibitory concentrations (MIC) for the test compounds against the indicated microorganisms. The MIC values were obtained in the Gradient Plate in vitro method for determining antibiotic activity. […]

For data set [4], the system named is V84 (penicillin resistant Staphylococcus). The experiment in a line: Antibiotic activity (MIC), Gradient Plate in vitro method, V84. In kind it is cell-based. As to conditions: read-out: Minimum Inhibitory Concentration.
Source text: as §1, §3

The nature of data set [5]: Water solubility (inferred from low yield). In kind it is physicochemical. As to conditions: inferred from low yield of aqueous isolation.
The nature of the next data set: Titration (pKa). In kind it is physicochemical. The note with it: 66% dmf-34% h2o, titration (66% DMF-34% H2O).

Structures are written as SMILES. In brackets after ≈: the same amount, converted by molar mass. Where two headings read alike, the source gives them in different places.

As to `Cc1nnc(SCC2=C(C(=O)O)N3C(=O)C(NC(=O)[C@H](NC(=O)c4ccc(O)cc4)c4ccc(O)cc4)C3SC2)s1` (stereo partly drawn) [Example 12, 7-[D-[2-(4-Hydroxyphenyl)-2-[(4-hydroxybenzoyl)amino]acetyl]-amino]-3-[[(5-methyl-1,3,4-thiadiazol-2-yl)thio]methyl]-3-cephem-4-carboxylic acid], the MIC is 13.9 µg/mL (≈ 22.6 µM) in the data set on Shigella sp.; 50 µg/mL (≈ 81.5 µM) in the data set with Escherichia coli; 29.5 µg/mL (≈ 48.1 µM) in the data set with Klebsiella pneumoniae; 40 µg/mL (≈ 65.2 µM) in the data set on Aerobacter Aerogenes; 33 µg/mL (≈ 53.8 µM) in the data set on Salmonella heidelberg; > 200 µg/mL in the data set on Pseudomonas Aeruginosa. For the same molecule, the MIC in the data set on Serratia marcescens was > 200 µg/mL; in data set [1] (Staphylococcus), 1 µg/mL (≈ 1.63 µM); in [2] (Staphylococcus), 1 µg/mL (≈ 1.63 µM); in data set [3], 84 µg/mL (≈ 137 µM); in data set [4] (Staphylococcus) it was 1 µg/mL (≈ 1.63 µM). For the same molecule, in [5], the water solubility entry is listed as “quite water soluble”.
For orientation: pKa means the negative logarithm of the acid dissociation constant. Take `NC(=O)OCC1=C(C(=O)O)N2C(=O)C(NC(=O)C(NC(=O)c3cccc(O)c3O)c3ccccc3)C2SC1` [Example 20, 7-[D-[2-Phenyl-2-[(2,3-dihydroxybenzoyl)amino]acetyl]-amino]-3-carbamoyloxymethyl-3-cephem-4-carboxylic acid]: the MIC came out at 58 µg/mL (≈ 107 µM) in the data set with Shigella sp.; 74 µg/mL (≈ 136 µM) in the data set on Escherichia coli; 6.5 µg/mL (≈ 12 µM) in the data set on Klebsiella pneumoniae; 76 µg/mL (≈ 140 µM) in the data set on Aerobacter Aerogenes; 1 µg/mL (≈ 1.84 µM) in the data set on Salmonella heidelberg; 140 µg/mL (≈ 258 µM) in the data set on Pseudomonas Aeruginosa. Further, the MIC was > 200 µg/mL with Serratia marcescens; 7.9 µg/mL (≈ 14.6 µM) in data set [1] (Gradient Plate in vitro, V41, penicillin resistant Staphylococcus); 7.4 µg/mL (≈ 13.6 µM) in [2] (Gradient Plate in vitro, V32, penicillin resistant Staphylococcus); > 200 µg/mL in data set [3]; 6.1 µg/mL (≈ 11.2 µM) in data set [4] (Gradient Plate in vitro, V84, penicillin resistant Staphylococcus). For the same molecule, the pKa in the data set “Titration (pKa)” (first pKa, read-out: pKa (first value)) is 5.15; in the data set “Titration (pKa)” (second pKa, read-out: pKa (second value)), 8.7.

For the origin of these results see US4319028A, “7-(2-(Substituted benzoyl)amino)acetamido)cephalosporins” (Eli Lilly and Company, priority 1976, dated 1982).
